The source of these data is patent publication US5789625A, “Metal-ligand complex catalyzed processes” (priority 1996, dated 1998).

The conditions of data set [1]: cited from earlier work.
Data set [2] in a line: Extraction experiment: partitioning of base from butyraldehyde to equimolar aqueous H3PO3 (Example 5, Table A). In kind it is physicochemical. How it is done:
The following series of experiments were performed in order to determine the relationship of the pKa of a base to the effectiveness of the base to remain in the organic phase upon contact with an equimolar aqueous acid solution. In all cases the experiments were performed under nitrogen, unless otherwise specified.
Solutions were prepared by dissolving a quantity of acid or base in solvent so that the final concentration was equal to 0.1 moles/liter. The 1×10^-3 moles/liter solutions were prepared by taking an aliquot of the 0.1 moles/liter solution and diluting to the specified concentration. The 1×10^-5 moles/liter solutions were prepared in the same manner as the 1×10^-3 moles/liter solution with the modification of using an aliquot of the 1×10^-3 moles/liter solution in place of the 0.1 moles/liter solution.
In each extraction experiment, 5 milliliters of base solution in butyraldehyde was added to a clean, dry vial. To this vial was added 5 milliliters of equimolar H3 PO3 solution. The resulting mixture was rapidly shaken for several minutes and then allowed to phase separate. A 1 milliliter aliquot of the aqueous layer was then transferred to a clean, dry vial. To this vial was added 1 milliliter of pH 7 sodium/potassium phosphate buffer and 0.1 milliliter of Tergitol® 15-S-9 surfactant. The solution was shaken vigorously, and an aliquot was analyzed by high performance liquid chromatography for base content. The amount of base was then compared with a dichloromethane solution at the initial concentration. The partition coefficients calculated are for partitioning of the base from the organic phase to the water phase and is defined as K=amount of base in the water phase/amount of base in the organic phase.

Data set [3] can be described thus: Stability of Ligand F in butyraldehyde solution containing rhodium, by HPLC (Examples 2-4). In kind it is physicochemical. The conditions noted are these: for concentration of Ligand F remaining: 0.017 grams phosphorous acid added to 12 gram solution, start 0.39; for change in concentration of Ligand F: no added acid or benzimidazole, 200 ppm rhodium, 0.39 wt% Ligand F in butyraldehyde.

Setting [4] is: base 1 × 10^-3 moles/liter in butyraldehyde, H3PO3 1 × 10^-3 moles/liter.
Where [5] appears, read: base 1 × 10^-5 moles/liter in butyraldehyde, H3PO3 1 × 10^-5 moles/liter.

On to `O=C1CCCN1Cc1ccccc1` [1-benzyl-2-pyrrolidinone], for which the pKa of base in data set [1] is listed as -0.7.
`c1ccc(Cc2ccccn2)cc1` [2-benzylpyridine]: the results for the “K (amount of base in the water phase/amount of base in the organic phase)” value in data set [2] (setting [4]) and in data set [2] (setting [5]) were 0.22 and 0.30, respectively.
For the compound `CC(=O)c1cccnc1` [3-acetylpyridine], the entries for the “K (amount of base in the water phase/amount of base in the organic phase)” value in data set [2] (setting [4]) and in data set [2] (setting [5]) were 0.93 and 0.00, respectively. For the same compound, in data set [1], the pKa of base was 3.3.
Regarding `CC(C)(C)c1cc(-c2cc(C(C)(C)C)cc(C(C)(C)C)c2Op2oc3ccccc3c3ccccc3o2)c(Op2oc3ccccc3c3ccccc3o2)c(C(C)(C)C)c1` [Ligand F], in data set [3] (24 hours), the “concentration of Ligand F remaining” value was found to be 0.12 percent by weight and the “change in concentration of Ligand F” value is given as “No change”. In addition, in data set [3] (72 hours), the “concentration of Ligand F remaining” value is listed as 0.04 percent by weight and the “change in concentration of Ligand F” value is listed as “No change”.
